Data on 34 compounds can be found in ChEMBL document CHEMBL1201862, “PubChem BioAssay data set” (2004).

Among the test systems are 786-0; BT-549; DU-145; DMS-114; DMS-273; HOP-18; KM-20L2; LXFL 529; RXF 631.
Assay in all cases: NCI anticancer screen, dose series, 48 h

The structures appear in SMILES notation.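 Test compounds were applied to cells in 96-well plates for 48 hours at 5 doses. Abbreviation: GI50, concentration required for 50% inhibition of growth.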 Calls of active or inactive are those of the source. No stated cut-off is given here; in the data, active = GI50 up to about 1.1 µM and inactive = higher.

Turning to `O=C(O)/C(Cc1ccnc2ccccc12)=N\O`, the GI50 in the assay with 786-0, in the assay on BT-549 and in the assay on DU-145 was > 100 µM (inactive) throughout.

Regarding `COc1cccc2c1C(=O)c1c(O)c3c(c(O)c1C2=O)C[C@@](O)(C(=O)CO)C[C@@H]3OC1CC(N2CCOCC2)C(O)C(C)O1` (stereo partly specified), the GI50 was 0.0525 µM (active) in the assay on BT-549; 0.0025 µM (active) in the assay with DMS-114; 0.00409 µM (active) in the assay on DMS-273; 0.0497 µM (active) in the assay on DU-145; 0.0034 µM (active) in the assay with HOP-18; 0.0025 µM (active) with KM-20L2.

Turning to `CC(=O)OC1CC2(O)C(CCC3(C)C(c4ccc(=O)oc4)CCC32O)C2(C)C1=CC(O)C1OC12` (stereo unspecified), the GI50 with DMS-114 is 0.025 µM (active); in the assay with DMS-273, 0.04 µM (active); in the assay on HOP-18 it was 0.048 µM (active); in the assay on KM-20L2 it was 0.067 µM (active).

As for `COC(=S)OC1CC(n2cnc3c(N)ncnc32)OC1CO[Si](C)(C)C(C)(C)C` (stereo unspecified), the GI50 in the assay on BT-549 was 21.9 µM (inactive); with DU-145 it was 16.8 µM (inactive).

Regarding `CC1Oc2c(c(O)cc3oc(=O)cc(-c4ccccc4)c23)C(=O)C1C` (stereo unspecified), the GI50 in the assay on DMS-273, with HOP-18, in the assay with KM-20L2, with LXFL 529 and in the assay on RXF 631 was > 100 µM (inactive) in each case.

With `C=C1C(=O)O[C@H]2[C@H]1[C@@H](OC(=O)C=C(C)C)CC1=C[C@@H](C[C@@]3(C)O[C@@H]23)OC1=O`, the GI50 is 1.61 µM (inactive) with DMS-273 and 3.05 µM (inactive) in the assay with HOP-18.

For `Cc1ccc2oc3c(ccc(=O)n3C)c(=O)c2c1`, in the assay with DU-145, the GI50 was > 100 µM (inactive).

`COc1cccc(C2C(C(=O)O)=C(CO)Oc3cc4c(cc32)OCO4)c1OC` (stereo unspecified): the GI50 with HOP-18, in the assay on KM-20L2, in the assay with LXFL 529 and in the assay on RXF 631 was > 100 µM (inactive) each time.

For the compound `COC(=O)c1ccccc1/N=C(/NC1CCCCCC1)NS(=O)(=O)c1ccc(C)cc1`, the GI50 in the assay on 786-0 was > 100 µM (inactive); in the assay with BT-549, > 100 µM (inactive); with DU-145, 58.6 µM (inactive).

On to `O=C1OC(c2ccccc2)=N/C1=C\c1ccc(Oc2ccc(Cl)c(Cl)c2)cc1`, for which the GI50 in the assay with 786-0 is 29.9 µM (inactive); with DMS-114, 15.4 µM (inactive); in the assay with HOP-18, > 100 µM (inactive); in the assay on KM-20L2 it was 56.6 µM (inactive); with LXFL 529 it was 25.6 µM (inactive).

On to `COC(=O)C1=C(C)N2CCOC2(C)C(C(=O)OC)C1c1ccc[nH]1` (stereo unspecified), for which the GI50 in the assay on DMS-114, in the assay with KM-20L2 and in the assay with LXFL 529 was > 100 µM (inactive) in each case.

Take `OC1(c2ccccc2)CC2CCC(C1)N2CCc1ccccc1` (stereo unspecified): the GI50 was > 100 µM (inactive) in the assay with 786-0, 40.1 µM (inactive) in the assay on BT-549 and 48.4 µM (inactive) with DU-145.

Regarding `COC(=O)c1cc(NC2OCC(OC(C)=O)C(OC(C)=O)C2OC(C)=O)nc(SC)c1C(=O)OC` (stereo unspecified), the GI50 in the assay on 786-0, in the assay with BT-549 and with DU-145 was > 100 µM (inactive) throughout.

Consider `CCOC(=O)Cn1c(=O)c2cc(C)cc3c(Cl)nc4c(OC)c(OC)cc1c4c32`, for which the GI50 was 29.7 µM (inactive) in the assay with 786-0, 56.6 µM (inactive) in the assay with BT-549 and > 100 µM (inactive) in the assay with DU-145.

With `CN1c2ccccc2C(=O)NC12CCN(CCCC(=O)c1ccc(F)cc1)CC2`, the GI50 was 74.3 µM (inactive) in the assay on 786-0, 58.3 µM (inactive) with BT-549 and > 100 µM (inactive) in the assay with DU-145.

On to `COc1cc(/C=C2\N=C(c3ccccc3)N(c3ccc(C(=O)c4ccccc4)cc3N3C(=O)/C(=C/c4cc(OC)c(OC)c(OC)c4)N=C3c3ccccc3)C2=O)cc(OC)c1OC`, for which the GI50 was 16.8 µM (inactive) in the assay on 786-0, 14.4 µM (inactive) with BT-549 and 14.5 µM (inactive) in the assay on DU-145.

Consider `CN(C)CCNC(=O)c1cc(Cl)cc2ccc(-c3ccccc3)nc12`, for which the GI50 in the assay with DMS-114 is 3.46 µM (inactive); with DMS-273, 2.3 µM (inactive); in the assay with HOP-18, 3.52 µM (inactive); in the assay with KM-20L2, 2.65 µM (inactive).

Consider `O=c1cc(-c2cc(O)c(O)c(-c3c(O)cc4oc(-c5ccc(O)c(O)c5)cc(=O)c4c3O)c2)oc2cc(O)cc(O)c12`, for which the GI50 with BT-549 and in the assay with DU-145 was > 25 µM (inactive) throughout.

For `O=P1(c2ccccc2)Nc2ccccc2SSc2ccccc2N1`, the GI50 with DMS-114 was 19.5 µM (inactive); with DMS-273 it was 17.4 µM (inactive); in the assay on HOP-18 it was 19.2 µM (inactive); in the assay on KM-20L2, 17.9 µM (inactive).

For the compound `Cc1cc(C)nc(NS(=O)(=O)c2ccc(Nc3c4ccccc4nc4c(C(=O)N5CCN(CCOS(C)(=O)=O)CC5)cccc34)cc2)n1`, the figures for the GI50 in the assay on DMS-114 and in the assay on KM-20L2 were 99.1 µM (inactive) and > 100 µM (inactive), respectively.

On to `COc1nc2cccc(C(O)c3ccccc3)c2nc1-c1ccccc1` (stereo unspecified), for which the values for the GI50 with BT-549 and with DU-145 were 13.9 µM (inactive) and 5.93 µM (inactive), respectively.

On to `NC(CCCCCCCCCCP(=O)(O)O)C(=O)O` (stereo unspecified), for which the GI50 in the assay with DU-145 was > 100 µM (inactive).

As to `C=CCC(O[Si](C)(C)C(C)(C)C)c1cc(O[Si](C)(C)C(C)(C)C)ccc1OC` (stereo unspecified), the GI50 in the assay on DMS-114 was > 59.7 µM (inactive); with DMS-273, > 95.1 µM (inactive); in the assay with HOP-18, > 100 µM (inactive); in the assay on KM-20L2, > 100 µM (inactive).

Take `C=CCc1cccc(/C=N\N/C(N)=N/O)c1O`: the GI50 is 2.28 µM (inactive) with DMS-114, 3.05 µM (inactive) with DMS-273, 5.09 µM (inactive) with HOP-18 and 3.98 µM (inactive) in the assay with KM-20L2.

Consider `NC1=C(C(=O)O)C(=O)C(Nc2c(O)cccc2C(=O)O)=CC1=O`, for which the GI50 with 786-0, in the assay on DMS-114, in the assay with DMS-273, in the assay with HOP-18, in the assay on KM-20L2 and in the assay with LXFL 529 was > 100 µM (inactive) in each case. Further, in the assay on RXF 631, the GI50 was > 100 µM (inactive).

Regarding `COc1ccc(OC)c(SC(CC(=O)c2ccccc2)c2ccccc2)c1` (stereo unspecified), the GI50 is 15.6 µM (inactive) in the assay on 786-0 and 7.85 µM (inactive) with DU-145.

In the case of `CC1CCC2N(C1)CC1C3(O)CC45OC6(O)C(O)CCC4(C)C6CCC5C3(O)CC(O)C1(O)C2(C)O` (stereo unspecified), the GI50 in the assay with 786-0, in the assay with BT-549 and in the assay with DU-145 was > 100 µM (inactive) throughout.

Take `COC(=O)[C@@H]1C=C[C@H](NC(C)=O)C1`: the GI50 in the assay on BT-549 and in the assay on DU-145 was > 100 µM (inactive) in each case.

As to `CN1CCN(c2cc(-c3cc4ccccc4o3)oc(=O)c2C#N)CC1`, the GI50 was 69.2 µM (inactive) in the assay with DMS-114; 57.9 µM (inactive) in the assay with DMS-273; 89.5 µM (inactive) in the assay on KM-20L2; 81.7 µM (inactive) in the assay on LXFL 529; 41.4 µM (inactive) in the assay on RXF 631.

Take `COc1cc(CCCOC2OC(COC3OCC(O)C(O)C3O)C(O)C(O)C2O)cc2cc(-c3ccc4c(c3)OCO4)oc12` (stereo unspecified): the GI50 in the assay on DMS-114, in the assay with DMS-273 and in the assay with KM-20L2 was > 175 µM (inactive) in each case.

On to `Oc1ccc(NCn2c(=S)sc3ccccc32)cc1`, for which the GI50 in the assay on BT-549 and with DU-145 was > 100 µM (inactive) each time.

Regarding `O=C(OCc1ccccc1)C(Cc1ccccc1)N(Cc1ccccc1)Cc1ccccc1` (stereo unspecified), the GI50 was 7.5 µM (inactive) with DMS-114, 44.6 µM (inactive) with DMS-273, > 100 µM (inactive) with KM-20L2 and 21.9 µM (inactive) with LXFL 529.

In the case of `Cc1ccc(S(=O)(=O)N(CC(=O)O)c2ccccc2)cc1`, the GI50 with 786-0, with DMS-273, in the assay on HOP-18, in the assay on KM-20L2 and in the assay with LXFL 529 was > 100 µM (inactive) in each case.

On to `Cc1cc(C)cc(Sc2c([N+](=O)[O-])ncn2C)c1`, for which the GI50 was 24 µM (inactive) in the assay with 786-0; 12.2 µM (inactive) in the assay on DMS-114; 8.09 µM (inactive) in the assay with DMS-273; 1.28 µM (inactive) with HOP-18; 35.2 µM (inactive) in the assay with KM-20L2; 7.83 µM (inactive) in the assay with LXFL 529. For the same compound, the GI50 with RXF 631 was 16 µM (inactive).
